Assay [1] deals with Mouse ESC. Put plainly: In vitro dopamine and DOPAC levels by HPLC after KCl. It is filed as cell-based. The following applies: 14 days in vitro. The procedure: Dopamine release and turnover was determined in vitro using reverse phase high performance liquid chromatography (HPLC). Mouse ESC were differentiated in a 12 well plate according to the methodology depicted in FIG. 7(a), in the presence of either the Control peptide of Cripto BP. After 14 days in vitro, media was replaced with 200 ul of N2 media supplemented with 56 mM KCl for 30 min. The media was then collected and stabilized with 20 ul of buffer containing 0.4 M perchloric acid containing 7.9 mM sodium metabisulphate and 1.34 mM disodium EDTA. On the day of analysis the samples were centrifuged and the supernatant transferred to HPLC vials and placed in an autosampler for injection onto the HPLC. The HPLC consisted of a LC-20AT pump (Shimadzu), SIL-20A Autosampler (Shimadzu) and C18 reverse phase column (Bio-Rad, Hercules, USA). Detection was via a 3 mm VT-03 flow cell with glassy carbon working electrode (Antec Leyden) and Decade II Electrochemical Detector (Antec Leyden). The mobile phase consisted of 17% v/v methanol in purified deionized water containing 70 mM KH2PO4, 0.5 mM EDTA and 8.0 mM sulfonic acid, pH 3.0 and was run at a flow rate of 0.5 ml/min. DA turnover was expressed as the concentration of DOPAC to DA [DOPAC/DA]. Analysis was performed on triplicate wells on three independent differentiation experiments.

Assay [2] concerns Parkinsonian rats. Put plainly: Tumor formation after ESC transplantation into striatum of 6-OHDA lesioned rats. The format is in vivo, rat. The text has this:
(§1) Thirty-seven adult male Sprague Dawley rats (250-350 g; from ARC, Australia) were housed and treated according to the guidelines of the Australian and Howard Florey Institute animal ethics committee (07-030). Animals received unilateral stereotaxic injections of 6-OHDA into the substantia nigra pars compacta (SNpc) to create a complete lesion of the midbrain DA neurons, as previously described^29. Lesioned animals were selected for transplantation based on their response to amphetamine induced rotational behaviour as previously described^29. Animals making greater than 6 rotations/min (lesion greater than 80%) were selected for grafting.
(§2) Two days prior to grafting animals began cyclosporine-A immune suppression (10 mg/kg). Fourteen days post-lesioning selected animals (determined by behavioural rotations) were again anesthetized and stereotaxically injected with 1 μl of cell suspension at each of the 4 sites as previously described^29. Stereotaxic coordinates of 1st & 2nd Injection (from bregma): anterior 0.2 mm, lateral 3.0 mm, ventral 4.5 and 5.0 mm; 3rd & 4th Injection, anterior 1.0 mm, lateral 2.5 mm, ventral 4.5 and 5.0 mm; incisor bar 0 mm^57). ESCs were differentiated as outlined in FIG. 7a. In brief, ESC colonies were dissected away from the stromal feeder layer and dissociated using collagenase/dispase with agitation (700 μg/ml, Roche, for 20 min, 80 rpm). Cells were subsequently resuspended at a density of 3,000 cells/μl ready for grafting. Five rats received Sham injections (4 μl N2 media, 1 μl/site), 16 rats received a total of 12,000 ESCs (4×1 μl grafts) pre-treated with the Control peptide (of which 9 of these animals also received infusion of the Control peptide) and a further 16 rats received grafts pretreated with the Cripto blocking peptide (9 animals receiving infusion of the Cripto BP).
(§3) The peptide infusion was performed by implantation of a cannula into the striatum (Alzet brain infusion kit) connected to a subcutaneously placed osmotic minipump (Alzet) prefilled with either CP or Cripto BP. Implantation was performed at the same time as the cell grafting. Cannula coordinates: anterior 0.5 mm, lateral 1.5 mm, ventral 5.0 mm; incisor bar 0 mm^57. The osmotic pump was capable of continuously delivering the peptide over a 3 weeks period (75 μM, 0.25 μl/hr) upon which time the animals were briefly anaesthetized with isoflurane and the pump removed through a small incision over the scapular region.
Eight weeks post grafting, rats were killed by an overdose of sodium pentobarbital (100 mg kg^−1 i.p.) and intracardially perfused as previously described^29. Brains were removed, post fixed for 1 hour, and then left overnight at 4° C. in 20% sucrose in PBS. The following day, 20 μm-thick coronal sections were cut serially through the striatum (12 series) and 50 μm through the SNpc and mounted directly onto chrome alum [K2Cr(SO4)2.12H2O] gelatinized slides.
One series of slides containing grafted striata was counterstained using 1% Neutral red to visualise the graft/tumor size and the gross morphology of the striatum.
Labeling was visualized by light or fluorescent illumination using an inverted microscope (DMIRB, Leica Microsystems, Wetzelar, Del., http://www.leica-microsystems.com) or upright microscope (Leica DMLB2). Images were acquired on a DC 350 FX camera (Leica). Area of grafts and tumors was calculated using Stereo Investigator software (MicroBrightField, Vt., USA).

For assay [3], the system named is Parkinsonian rats. The assay is described as follows: Amphetamine-induced rotational behaviour of ESC-grafted Parkinsonian rats. The format is in vivo, rat. The following applies: for improvement in amphetamine-induced rotations: pre-treated ESCs + peptide infusion.
Source text: as §1, §2, §3

Assay [4] concerns Parkinsonian rats. Put plainly: TH-ir neuron counts within striatal grafts. The following applies: tumor-free animals. The format is in vivo, rat. The procedure:
as §2
The peptide infusion was performed by implantation of a cannula into the striatum (Alzet brain infusion kit) connected to a subcutaneously placed osmotic minipump (Alzet) prefilled with either CP or Cripto BP. […]

The mark [5] stands for this setting: 56 mM KCl 30 min, compared to Control peptide.

The structures appear in SMILES notation.

For `C[S+]([O-])CCC(N)C(=O)N[C@@H](CSCc1ccccc1)C(=O)N[C@@H](CSCc1ccccc1)C(=O)N[C@@H](CCCCNC(=O)[C@H](CSCc1ccccc1)NC(=O)[C@H](CSCc1ccccc1)NC(=O)[C@@H](N)CC[S+](C)[O-])C(=O)N[C@@H](CCCCNC(=O)[C@H](CCCCNC(=O)[C@H](CSCc1ccccc1)NC(=O)[C@H](CSCc1ccccc1)NC(=O)[C@@H](N)CC[S+](C)[O-])NC(=O)[C@H](CSCc1ccccc1)NC(=O)[C@H](CSCc1ccccc1)NC(=O)[C@@H](N)CC[S+](C)[O-])C(=O)NCC(=O)O` (stereo partly drawn) [Cripto BP], the “KCl-evoked release of DOPAC” value in assay [1] (setting [5]) was “significantly increases”. For the same molecule, the “KCl-evoked release of dopamine” value in assay [1] (setting [5]) is given as “significantly increases”. The “dopamine turnover (ratio of DOPAC to DA)” value in assay [1] is reported as “able to utilize DA”. The tumor volume in assay [2] (ESCs pre-treated with peptide + peptide infusion) is reported as 0.79 um^3×10^10; in assay [2] (ESCs pre-treated with peptide, no infusion, Mean±SEM), 1.09 um^3×10^10. The “tumor formation (rats with tumors)” value in assay [2] (ESCs pre-treated with peptide, no infusion, 8 weeks) worked out at 42%. Also, the “further reduction of tumor incidence by continual infusion into the striatum” value in assay [2] (pre-treated ESCs + peptide infusion (75 μM, 0.25 μl/hr, 3 weeks)) worked out at 9%. In addition, the “animals with grafts without proliferating or undifferentiated cells” value in assay [2] (range over pre-treatment without and with infusion) is recorded as 58-67%. The “reduction of tumor formation compared to control peptide” value in assay [2] (rat, in vivo) is “more than 50%”. Moreover, the “functional improvement in rotational behaviour compared to shams” value in assay [3] (12,000 ESCs pre-treated, without infusion) is on record as “significant reductions in amphetamine induced rotational behaviour as early as week 2 post-grafting”. In addition, the “improvement in amphetamine-induced rotations” value is reported as “significantly improved functional recovery” in assay [3] and 69.6±8.4% in assay [3] (mean±SD). For the same molecule, the “reduction in amphetamine induced rotational behaviour” value in assay [3] (pre-treated ESCs without infusion, 8 weeks postgrafting, mean±SD) came out at 66.2±8.4%. Moreover, the “TH+ cell counts within the graft” value in assay [4] (pre-treated ESCs + peptide infusion) turned out to be 10815±887. Also, the “TH+ cells within the graft” value in assay [4] (pre-treated ESCs without infusion) was found to be 7491±1488.

(Values after patent US20110028401A1, “CRIPTO BLOCKING MOLECULES AND THERAPEUTIC USES THEREOF” (CONSIGLIO NAZIONALE DELLE RICERCHE, priority 2009, published 2011).)
